Experimental data as given in US20190309272A1, “Genetically Modified Cell Lines Including a TP53 Modification and Methods of Use” (UNIVERSITY OF SOUTH CAROLINA, priority 2018, published 2019).
Where a name gives a salt, the structure may show the parent alone. Read-outs that look alike come from different tables or passages of the source.

Assays:
Assay type in all cases: cell-based, Human
MCF7 WT Parental pool = assay: Drug screening, resazurin, MCF7 wild type parental pool
MCF7 TP53 KO 5.6 pool = assay: Drug screening, resazurin, TP53 KO 5.6 pool
MCF7 TP53 KO 3.4 pool = assay: Drug screening, resazurin, TP53 KO 3.4 pool
[1] = ten-day drug treatment, 156.25 nM to 10 μM, resazurin fluorescence

| Compound | MCF7 WT Parental pool (AUC) (MCF7 WT Parental pool; [1]) | TP53 KO 5.6 pool (AUC) (MCF7 TP53 KO 5.6 pool; [1]) | TP53 KO 3.4 pool (AUC) (MCF7 TP53 KO 3.4 pool; [1]) | MCF7 WT Parental pool (AUC) (MCF7 WT Parental pool) | TP53 KO 5.6 pool (AUC) (MCF7 TP53 KO 5.6 pool) | TP53 KO 3.4 pool (AUC) (MCF7 TP53 KO 3.4 pool) |
| --- | --- | --- | --- | --- | --- | --- |
| C[C@]12CC[C@H](O)CC1=CC[C@@H]1[C@@H]2CC[C@]2(C)C(c3cccnc3)=CC[C@@H]12 [Abiraterone] | 8.378 | 9.254 | 8.785 |  |  |  |
| CN(C)C/C=C/C(=O)Nc1cc2c(Nc3ccc(F)c(Cl)c3)ncnc2cc1O[C@H]1CCOC1 [Afatanib] | 2.734 | 2.139 | 2.48 |  |  |  |
| CCc1cc2c(cc1N1CCC(N3CCOCC3)CC1)C(C)(C)c1[nH]c3cc(C#N)ccc3c1C2=O [Alectinib] | 5.763 | 2.7 | 4.51 |  |  |  |
| CN(C)c1nc(N(C)C)nc(N(C)C)n1 [Altretamine] | 8.059 | 8.473 | 8.874 |  |  |  |
| NCCCNCCSP(=O)(O)O [Amifostine] | 8.456 | 9.73 | 9.108 |  |  |  |
| NCC(=O)CCC(=O)O [Aminolevulinic Acid] | 8.749 | 8.787 | 9.101 |  |  |  |
| CC(C)(C#N)c1cc(Cn2cncn2)cc(C(C)(C)C#N)c1 [Anastrozole] | 8.01 | 8.828 | 8.067 |  |  |  |
| CNC(=O)c1ccccc1Sc1ccc2c(/C=C/c3ccccn3)n[nH]c2c1 [Axitinib] | 2.581 | 3.786 | 3.743 |  |  |  |
| Nc1ncn([C@@H]2O[C@H](CO)[C@@H](O)[C@H]2O)c(=O)n1 [Azactidine] | 8.861 | 6.373 | 9.05 |  |  |  |
| O=C(/C=C/c1cccc(S(=O)(=O)Nc2ccccc2)c1)NO [Belinostat] | 1.423 | 1.322 | 1.525 |  |  |  |
| Cn1c(CCCC(=O)O)nc2cc(N(CCCl)CCCl)ccc21 [Bendamustine Hydrochloride] |  |  |  | 9.021 | 10.23 | 9.503 |
| CC(C)C[C@H](NC(=O)[C@H](Cc1ccccc1)NC(=O)c1cnccn1)B(O)O [Bortezomib] | 0.6974 | 0.7486 | 0.673 |  |  |  |
| COc1cc(Nc2c(C#N)cnc3cc(OCCCN4CCN(C)CC4)c(OC)cc23)c(Cl)cc1Cl [Bosutinib] | 8.686 | 9.588 | 9.254 |  |  |  |
| CS(=O)(=O)OCCCCOS(C)(=O)=O [Busulfan] | 9.118 | 8.834 | 9.336 |  |  |  |
| CO[C@H]1C(=O)[C@]2(C)[C@@H](OC)C[C@H]3OC[C@@]3(OC(C)=O)[C@H]2[C@H](OC(=O)c2ccccc2)[C@]2(O)C[C@H](OC(=O)[C@H](O)[C@@H](NC(=O)OC(C)(C)C)c3ccccc3)C(C)=C1C2(C)C [Cabazitaxel] | 1.406 | 1.713 | 1.658 |  |  |  |
| COc1cc2nccc(Oc3ccc(NC(=O)C4(C(=O)Nc5ccc(F)cc5)CC4)cc3)c2cc1OC [Cabozantinib] | 4.126 | 4.52 | 4.376 |  |  |  |
| CCCCCOC(=O)Nc1nc(=O)n([C@@H]2O[C@H](C)[C@@H](O)[C@H]2O)cc1F [Capecitabine] | 9.004 | 9.284 | 9.208 |  |  |  |
| N.N.O=C([O-])C1(C(=O)[O-])CCC1.[Pt+2] [Carboplatin] | 8.83 | 8.343 | 9.302 |  |  |  |
| CC(C)C[C@H](NC(=O)[C@H](CCc1ccccc1)NC(=O)CN1CCOCC1)C(=O)N[C@@H](Cc1ccccc1)C(=O)N[C@@H](CC(C)C)C(=O)[C@@]1(C)CO1 [Carfilzomib] | 0.6359 | 0.6678 | 0.6462 |  |  |  |

| Compound | MCF7 WT Parental pool (AUC) (MCF7 WT Parental pool; [1]) | TP53 KO 5.6 pool (AUC) (MCF7 TP53 KO 5.6 pool; [1]) | TP53 KO 3.4 pool (AUC) (MCF7 TP53 KO 3.4 pool; [1]) | MCF7 WT Parental pool (AUC) (MCF7 WT Parental pool) | TP53 KO 5.6 pool (AUC) (MCF7 TP53 KO 5.6 pool) | TP53 KO 3.4 pool (AUC) (MCF7 TP53 KO 3.4 pool) |
| --- | --- | --- | --- | --- | --- | --- |
| O=NN(CCCl)C(=O)NCCCl [Carmustine] | 9.622 | 9.965 | 9.826 |  |  |  |
| Cc1cc(Nc2ncc(Cl)c(Nc3ccccc3S(=O)(=O)C(C)C)n2)c(OC(C)C)cc1C1CCNCC1 [Ceritinib] | 1.637 | 1.421 | 1.482 |  |  |  |
| O=C(O)CCCc1ccc(N(CCCl)CCCl)cc1 [Chlorambucil] | 16.08 | 17.6 | 16.5 |  |  |  |
| N.N.[Cl][Pt][Cl] [Cisplatin] | 7.335 | 7.44 | 6.27 |  |  |  |
| Nc1nc(Cl)nc2c1ncn2[C@H]1C[C@H](O)[C@@H](CO)O1 [Cladribine] | 5.569 | 3.956 | 3.767 |  |  |  |
| Nc1nc(Cl)nc2c1ncn2[C@@H]1O[C@H](CO)[C@@H](O)[C@@H]1F [Clofarabine] | 5.232 | 3.74 | 3.085 |  |  |  |
| CC1=C2C[C@H]3[C@@H](CC=C4C[C@@H](O)CC[C@@]43C)[C@@H]2CC[C@]12O[C@@H]1C[C@H](C)CN[C@H]1[C@H]2C [Clyclopamine] | 9.488 | 9.093 | 9.033 |  |  |  |
| O=C(c1ccc(F)c(F)c1Nc1ccc(I)cc1F)N1CC(O)([C@@H]2CCCCN2)C1 [Cobimetinib] | 7.621 | 8.041 | 4.851 |  |  |  |
| C[C@@H](Oc1cc(-c2cnn(C3CCNCC3)c2)cnc1N)c1c(Cl)ccc(F)c1Cl [Crizotinib] | 2.549 | 2.941 | 2.325 |  |  |  |
| Nc1ccn([C@@H]2O[C@H](CO)[C@@H](O)[C@@H]2O)c(=O)n1 [Cytarabine Hydrochloride] | 4.771 |  |  |  |  |  |
| C=C1C[C@@H]2[C@H](CC[C@]3(C)C(=O)CC[C@@H]23)[C@@]2(C)C=CC(=O)C=C12 [Exemestane] | 8.564 |  |  |  |  |  |
| CC(=O)[C@]1(O)Cc2c(O)c3c(c(O)c2[C@@H](O[C@H]2C[C@H](N)[C@H](O)[C@H](C)O2)C1)C(=O)c1ccccc1C3=O [Idarubicin Hydrochloride] | 0.958 |  |  |  |  |  |
| O=C1c2c(O)ccc(O)c2C(=O)c2c(NCCNCCO)ccc(NCCNCCO)c21 [Mitoxantrone] | 2.338 |  |  |  |  |  |
| OC[C@H]1O[C@@H](n2cnc3c2NC=NC[C@H]3O)C[C@@H]1O [Pentostatin] | 10.31 |  |  |  |  |  |
| CNC(=O)c1cc(Oc2ccc(NC(=O)Nc3ccc(Cl)c(C(F)(F)F)c3)cc2)ccn1 [Sorafenib] | 3.981 |  |  |  |  |  |
| CO[C@H]1C[C@@H]2CC[C@@H](C)[C@@](O)(O2)C(=O)C(=O)N2CCCC[C@H]2C(=O)O[C@H]([C@H](C)C[C@@H]2CC[C@@H](OC(=O)C(C)(CO)CO)[C@H](OC)C2)CC(=O)[C@H](C)/C=C(\C)[C@@H](O)[C@@H](OC)C(=O)[C@H](C)C[C@H](C)/C=C/C=C/C=C/1C [Temsirolimus] | 2.486 |  |  |  |  |  |
| Nc1nc2nc[nH]c2c(=S)[nH]1 [Thioguanine] | 4.122 |  |  |  |  |  |
| Dabrafenib Mesylate | 14.9 |  | 14.73 |  |  |  |
